Assay results published in US10479786B2, “Protein kinase inhibitors” (Princeton Drug Discovery Inc, priority 2016, dated 2019).

What was measured:
LCK = target: T1, LCK (Homo sapiens, UniProt P06239); experiment: Off-chip Mobility Shift Assay, kinase inhibition; type: biochemical; settings: recombinant LCK; for inhibition at 0.001 µM: at 1 nM; for inhibition at 0.01 µM: at 10 nM
T1 construct: purchased Carna Biosciences, Inc

Mino = experiment: Cell inhibition assay (PrestoBlue, 48 h); type: cell-based; settings: Homo sapiens, Mino cells, read-out: IC50, inhibition of growth
ACK = target: T2, ACK (Homo sapiens, UniProt Q07912); experiment: Off-chip Mobility Shift Assay, kinase inhibition; type: biochemical; settings: recombinant ACK; for inhibition at 0.01 µM: at 10 nM
T2 construct: purchased Carna Biosciences, Inc

FRK = target: T3, FRK (Homo sapiens, UniProt P42685); experiment: Off-chip Mobility Shift Assay, kinase inhibition; type: biochemical; settings: recombinant FRK; for inhibition at 0.001 µM: at 1 nM; for inhibition at 0.01 µM: at 10 nM
T3 construct: purchased Carna Biosciences, Inc

FMS = target: T4, FMS (Homo sapiens, UniProt P07333); experiment: Off-chip Mobility Shift Assay, kinase inhibition; type: biochemical; settings: recombinant FMS; for inhibition at 0.001 µM: at 1 nM; for inhibition at 0.01 µM: at 10 nM
T4 construct: purchased Carna Biosciences, Inc

DDR2 = target: T5, DDR2 (Homo sapiens, UniProt Q16832); experiment: Off-chip Mobility Shift Assay, kinase inhibition; type: biochemical; settings: recombinant DDR2; for inhibition at 0.01 µM: at 10 nM, read-out: inhibition
T5 construct: purchased Carna Biosciences, Inc
T5 sequence (Q16832 22-855): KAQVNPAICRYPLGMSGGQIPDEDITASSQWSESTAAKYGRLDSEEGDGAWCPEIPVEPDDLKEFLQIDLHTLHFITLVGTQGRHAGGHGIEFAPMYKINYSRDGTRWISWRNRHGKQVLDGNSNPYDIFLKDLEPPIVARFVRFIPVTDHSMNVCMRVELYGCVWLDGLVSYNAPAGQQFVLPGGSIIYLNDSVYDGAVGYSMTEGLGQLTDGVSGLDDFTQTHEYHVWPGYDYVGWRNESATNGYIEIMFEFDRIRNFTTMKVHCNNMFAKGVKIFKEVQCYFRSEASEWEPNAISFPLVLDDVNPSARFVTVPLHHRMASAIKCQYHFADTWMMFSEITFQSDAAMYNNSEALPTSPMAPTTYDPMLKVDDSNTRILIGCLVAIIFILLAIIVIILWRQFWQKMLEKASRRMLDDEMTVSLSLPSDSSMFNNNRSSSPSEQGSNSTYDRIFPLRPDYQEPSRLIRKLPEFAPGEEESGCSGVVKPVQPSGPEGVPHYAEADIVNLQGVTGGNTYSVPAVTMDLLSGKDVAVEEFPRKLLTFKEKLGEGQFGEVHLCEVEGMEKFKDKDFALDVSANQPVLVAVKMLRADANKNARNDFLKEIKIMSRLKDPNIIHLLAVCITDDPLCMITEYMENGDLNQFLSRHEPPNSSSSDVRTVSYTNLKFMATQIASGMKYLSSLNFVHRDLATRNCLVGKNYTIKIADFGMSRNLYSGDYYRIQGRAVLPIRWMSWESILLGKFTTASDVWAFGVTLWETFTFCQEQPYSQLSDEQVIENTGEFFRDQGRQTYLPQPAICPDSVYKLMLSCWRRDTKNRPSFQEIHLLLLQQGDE

ARG = target: T6, ARG (Homo sapiens, UniProt P42684); experiment: Off-chip Mobility Shift Assay, kinase inhibition; type: biochemical; settings: recombinant ARG; for inhibition at 0.01 µM: at 10 nM, read-out: inhibition
T6 construct: purchased Carna Biosciences, Inc

EPHA1 = target: T7, EPHA1 (Homo sapiens, UniProt P21709); experiment: Off-chip Mobility Shift Assay, kinase inhibition; type: biochemical; settings: recombinant EPHA1; for inhibition at 0.001 µM: at 1 nM; for inhibition at 0.01 µM: at 10 nM
T7 construct: purchased Carna Biosciences, Inc
T7 sequence (P21709 26-976): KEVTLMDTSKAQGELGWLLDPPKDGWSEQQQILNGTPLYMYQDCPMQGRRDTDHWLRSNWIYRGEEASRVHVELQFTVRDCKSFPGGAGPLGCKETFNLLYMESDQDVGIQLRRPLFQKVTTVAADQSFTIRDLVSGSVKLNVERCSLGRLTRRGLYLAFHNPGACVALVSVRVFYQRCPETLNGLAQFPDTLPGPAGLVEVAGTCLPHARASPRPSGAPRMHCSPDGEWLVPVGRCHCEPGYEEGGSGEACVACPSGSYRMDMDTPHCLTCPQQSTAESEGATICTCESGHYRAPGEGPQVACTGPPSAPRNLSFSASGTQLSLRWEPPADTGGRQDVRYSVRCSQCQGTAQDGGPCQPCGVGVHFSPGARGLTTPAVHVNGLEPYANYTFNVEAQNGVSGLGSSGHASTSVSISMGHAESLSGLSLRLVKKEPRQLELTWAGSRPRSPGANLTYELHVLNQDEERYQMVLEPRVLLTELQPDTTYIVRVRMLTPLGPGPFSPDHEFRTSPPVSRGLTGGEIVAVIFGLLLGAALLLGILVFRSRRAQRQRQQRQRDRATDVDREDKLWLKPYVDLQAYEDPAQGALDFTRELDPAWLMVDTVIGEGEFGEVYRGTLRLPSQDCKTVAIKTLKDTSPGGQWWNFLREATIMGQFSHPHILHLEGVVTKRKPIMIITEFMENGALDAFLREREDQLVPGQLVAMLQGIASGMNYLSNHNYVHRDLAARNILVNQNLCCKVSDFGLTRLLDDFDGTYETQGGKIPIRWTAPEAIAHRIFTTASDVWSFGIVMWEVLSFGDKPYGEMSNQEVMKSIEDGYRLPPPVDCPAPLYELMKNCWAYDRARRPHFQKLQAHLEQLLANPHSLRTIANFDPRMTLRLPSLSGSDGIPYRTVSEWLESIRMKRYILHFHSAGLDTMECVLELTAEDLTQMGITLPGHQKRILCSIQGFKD

FGR = target: T8, FGR (Homo sapiens, UniProt P09769); experiment: Off-chip Mobility Shift Assay, kinase inhibition; type: biochemical; settings: recombinant FGR; for inhibition at 0.001 µM: at 1 nM; for inhibition at 0.01 µM: at 10 nM, read-out: inhibition
T8 construct: purchased Carna Biosciences, Inc

LYNa = target: T9, LYNa (Homo sapiens, UniProt P07948); experiment: Off-chip Mobility Shift Assay, kinase inhibition; type: biochemical; settings: recombinant LYNa; for inhibition at 0.001 µM: at 1 nM; for inhibition at 0.01 µM: at 10 nM, read-out: inhibition
T9 construct: purchased Carna Biosciences, Inc

SRC = target: T10, SRC (Homo sapiens, UniProt P12931); experiment: Off-chip Mobility Shift Assay, kinase inhibition; type: biochemical; settings: recombinant SRC; for inhibition at 0.001 µM: at 1 nM; for inhibition at 0.01 µM: at 10 nM
T10 construct: purchased Carna Biosciences, Inc

ABL(E255K) = target: T11, ABL(E255K) (Homo sapiens, UniProt P00519, E255K); experiment: Off-chip Mobility Shift Assay, kinase inhibition; type: biochemical; settings: recombinant ABL(E255K); for inhibition at 0.001 µM: at 1 nM; for inhibition at 0.01 µM: at 10 nM
T11 construct: purchased Carna Biosciences, Inc

HCK = target: T12, HCK (Homo sapiens, UniProt P08631); experiment: Off-chip Mobility Shift Assay, kinase inhibition; type: biochemical; settings: recombinant HCK; for inhibition at 0.001 µM: at 1 nM; for inhibition at 0.01 µM: at 10 nM, read-out: inhibition
T12 construct: purchased Carna Biosciences, Inc

[1] = test system: battery of selected protein kinases; experiment: In vitro screen of a battery of selected protein kinases (summary statement); type: biochemical; settings: BTK, BMX, ABL, ABL(E255K), SRC, ACK, ARG, BLK, DDR2, EPHA, FGR, FMS, FRK, FYN, HCK, LCK, LYN, PDGFRα, PDGFRβ, YES, PIK3CA/PIK3R1, among others
ABL = target: T13, ABL (Homo sapiens, UniProt P00519); experiment: Off-chip Mobility Shift Assay, kinase inhibition; type: biochemical; settings: recombinant ABL; for inhibition at 0.001 µM: at 1 nM; for inhibition at 0.01 µM: at 10 nM
T13 construct: purchased Carna Biosciences, Inc
T13 sequence (P00519 whole entry): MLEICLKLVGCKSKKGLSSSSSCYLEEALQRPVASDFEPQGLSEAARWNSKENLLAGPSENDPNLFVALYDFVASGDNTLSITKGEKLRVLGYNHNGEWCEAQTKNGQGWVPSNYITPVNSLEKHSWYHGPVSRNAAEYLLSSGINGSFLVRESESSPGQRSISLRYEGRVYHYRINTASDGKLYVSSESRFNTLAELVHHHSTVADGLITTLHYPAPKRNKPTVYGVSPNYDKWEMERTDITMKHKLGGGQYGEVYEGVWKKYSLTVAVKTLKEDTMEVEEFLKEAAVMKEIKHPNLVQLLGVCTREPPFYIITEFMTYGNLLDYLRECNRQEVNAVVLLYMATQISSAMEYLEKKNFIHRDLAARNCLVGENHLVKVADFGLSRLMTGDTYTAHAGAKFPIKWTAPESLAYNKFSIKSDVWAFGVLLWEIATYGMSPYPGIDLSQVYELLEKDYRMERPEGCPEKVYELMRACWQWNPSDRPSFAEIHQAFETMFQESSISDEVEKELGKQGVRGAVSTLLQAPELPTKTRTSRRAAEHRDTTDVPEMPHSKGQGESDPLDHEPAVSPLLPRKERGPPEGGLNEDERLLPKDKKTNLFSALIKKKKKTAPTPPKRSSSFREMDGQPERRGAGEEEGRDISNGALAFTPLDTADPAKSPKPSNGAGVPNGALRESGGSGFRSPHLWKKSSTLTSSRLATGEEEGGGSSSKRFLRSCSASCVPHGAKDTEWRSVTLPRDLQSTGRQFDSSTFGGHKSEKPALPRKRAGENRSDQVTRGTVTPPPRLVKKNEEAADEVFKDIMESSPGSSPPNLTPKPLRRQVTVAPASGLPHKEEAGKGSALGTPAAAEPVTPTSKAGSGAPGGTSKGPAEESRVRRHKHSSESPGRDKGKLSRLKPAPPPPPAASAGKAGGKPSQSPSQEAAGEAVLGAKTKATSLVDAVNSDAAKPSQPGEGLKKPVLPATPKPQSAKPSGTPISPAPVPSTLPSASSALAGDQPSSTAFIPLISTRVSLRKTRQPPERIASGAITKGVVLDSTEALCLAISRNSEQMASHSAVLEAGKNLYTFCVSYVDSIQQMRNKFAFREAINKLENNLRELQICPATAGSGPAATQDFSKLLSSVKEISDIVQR

T4 sequence (P07333 20-972): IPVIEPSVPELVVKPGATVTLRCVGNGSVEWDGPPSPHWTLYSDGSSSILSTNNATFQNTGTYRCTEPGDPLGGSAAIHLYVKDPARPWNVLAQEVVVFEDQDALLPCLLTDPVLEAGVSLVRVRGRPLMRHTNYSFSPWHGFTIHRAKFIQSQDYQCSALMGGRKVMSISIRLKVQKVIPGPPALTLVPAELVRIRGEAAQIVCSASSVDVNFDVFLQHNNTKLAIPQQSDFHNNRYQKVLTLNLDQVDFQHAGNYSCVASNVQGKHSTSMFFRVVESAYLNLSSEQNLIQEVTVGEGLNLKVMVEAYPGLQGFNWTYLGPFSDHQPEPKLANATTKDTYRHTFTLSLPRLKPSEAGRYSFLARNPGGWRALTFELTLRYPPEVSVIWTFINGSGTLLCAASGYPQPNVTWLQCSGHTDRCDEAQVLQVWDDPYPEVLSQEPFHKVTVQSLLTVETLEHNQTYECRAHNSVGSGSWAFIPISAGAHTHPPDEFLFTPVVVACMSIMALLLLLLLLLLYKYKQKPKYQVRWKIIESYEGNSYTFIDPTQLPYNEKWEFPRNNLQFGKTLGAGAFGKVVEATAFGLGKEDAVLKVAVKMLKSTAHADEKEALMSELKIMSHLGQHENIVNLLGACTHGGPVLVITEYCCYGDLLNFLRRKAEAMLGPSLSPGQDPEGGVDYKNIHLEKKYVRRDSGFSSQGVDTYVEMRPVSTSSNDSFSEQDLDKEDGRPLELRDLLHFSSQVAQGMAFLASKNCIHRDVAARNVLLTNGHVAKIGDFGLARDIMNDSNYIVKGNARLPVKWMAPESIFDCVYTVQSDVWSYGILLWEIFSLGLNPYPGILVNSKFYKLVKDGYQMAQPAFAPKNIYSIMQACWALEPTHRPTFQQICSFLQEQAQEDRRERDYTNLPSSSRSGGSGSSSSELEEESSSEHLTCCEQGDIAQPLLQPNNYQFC
T6 sequence (P42684 whole entry): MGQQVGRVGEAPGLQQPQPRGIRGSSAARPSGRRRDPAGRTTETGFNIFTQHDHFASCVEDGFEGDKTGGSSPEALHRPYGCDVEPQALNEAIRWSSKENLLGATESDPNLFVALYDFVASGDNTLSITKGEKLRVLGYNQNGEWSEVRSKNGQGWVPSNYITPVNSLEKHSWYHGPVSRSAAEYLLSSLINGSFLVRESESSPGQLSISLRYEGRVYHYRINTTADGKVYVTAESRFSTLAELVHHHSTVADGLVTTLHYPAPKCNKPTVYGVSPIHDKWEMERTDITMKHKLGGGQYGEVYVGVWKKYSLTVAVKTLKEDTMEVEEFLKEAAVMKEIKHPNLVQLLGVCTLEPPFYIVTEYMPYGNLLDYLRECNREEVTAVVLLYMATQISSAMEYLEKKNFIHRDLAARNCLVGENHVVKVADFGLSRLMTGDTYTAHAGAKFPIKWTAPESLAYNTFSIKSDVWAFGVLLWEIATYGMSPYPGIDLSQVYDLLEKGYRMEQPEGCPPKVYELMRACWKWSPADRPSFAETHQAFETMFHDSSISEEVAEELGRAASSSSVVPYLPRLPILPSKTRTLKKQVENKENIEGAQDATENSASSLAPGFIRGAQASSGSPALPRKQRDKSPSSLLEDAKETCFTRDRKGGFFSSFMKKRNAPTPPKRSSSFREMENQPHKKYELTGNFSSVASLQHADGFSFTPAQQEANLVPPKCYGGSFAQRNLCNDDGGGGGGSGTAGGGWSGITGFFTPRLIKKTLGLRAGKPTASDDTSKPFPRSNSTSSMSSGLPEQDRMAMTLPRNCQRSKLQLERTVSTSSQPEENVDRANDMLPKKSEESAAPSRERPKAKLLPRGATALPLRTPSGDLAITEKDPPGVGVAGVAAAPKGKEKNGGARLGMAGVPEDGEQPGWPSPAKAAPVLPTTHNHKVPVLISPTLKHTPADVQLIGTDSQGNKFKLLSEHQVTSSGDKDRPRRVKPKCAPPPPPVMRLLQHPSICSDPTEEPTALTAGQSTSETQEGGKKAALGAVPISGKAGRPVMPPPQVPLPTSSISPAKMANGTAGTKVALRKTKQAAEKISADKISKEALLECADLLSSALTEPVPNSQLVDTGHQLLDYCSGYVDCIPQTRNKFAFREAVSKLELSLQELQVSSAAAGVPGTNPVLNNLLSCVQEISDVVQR
T2 sequence (Q07912 whole entry): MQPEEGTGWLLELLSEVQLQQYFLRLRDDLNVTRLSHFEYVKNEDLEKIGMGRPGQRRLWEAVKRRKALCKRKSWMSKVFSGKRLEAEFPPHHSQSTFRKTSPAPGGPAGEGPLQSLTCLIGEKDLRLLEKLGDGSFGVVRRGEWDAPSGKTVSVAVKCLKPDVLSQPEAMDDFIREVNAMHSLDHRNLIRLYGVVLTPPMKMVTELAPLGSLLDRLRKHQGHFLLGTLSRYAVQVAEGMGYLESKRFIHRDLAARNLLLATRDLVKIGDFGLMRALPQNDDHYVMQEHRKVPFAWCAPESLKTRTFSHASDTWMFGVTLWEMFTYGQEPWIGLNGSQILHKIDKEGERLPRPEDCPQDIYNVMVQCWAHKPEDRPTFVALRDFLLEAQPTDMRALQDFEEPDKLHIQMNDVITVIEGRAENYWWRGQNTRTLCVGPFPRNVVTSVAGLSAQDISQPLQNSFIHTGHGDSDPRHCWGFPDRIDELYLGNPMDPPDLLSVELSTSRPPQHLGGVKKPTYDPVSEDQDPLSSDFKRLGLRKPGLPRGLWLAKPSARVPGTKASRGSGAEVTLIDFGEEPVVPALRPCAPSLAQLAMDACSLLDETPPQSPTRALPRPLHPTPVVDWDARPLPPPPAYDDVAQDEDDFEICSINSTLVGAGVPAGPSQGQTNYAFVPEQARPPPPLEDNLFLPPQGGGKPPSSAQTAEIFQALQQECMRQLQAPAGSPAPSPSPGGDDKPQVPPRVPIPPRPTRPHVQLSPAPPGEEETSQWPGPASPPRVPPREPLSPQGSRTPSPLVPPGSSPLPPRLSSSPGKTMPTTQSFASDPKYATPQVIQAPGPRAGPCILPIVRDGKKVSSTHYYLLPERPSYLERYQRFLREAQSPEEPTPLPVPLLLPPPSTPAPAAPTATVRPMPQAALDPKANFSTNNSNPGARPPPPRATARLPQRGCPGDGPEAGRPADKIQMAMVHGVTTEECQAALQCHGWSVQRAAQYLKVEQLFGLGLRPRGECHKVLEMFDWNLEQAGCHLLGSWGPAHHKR
T10 sequence (P12931 whole entry): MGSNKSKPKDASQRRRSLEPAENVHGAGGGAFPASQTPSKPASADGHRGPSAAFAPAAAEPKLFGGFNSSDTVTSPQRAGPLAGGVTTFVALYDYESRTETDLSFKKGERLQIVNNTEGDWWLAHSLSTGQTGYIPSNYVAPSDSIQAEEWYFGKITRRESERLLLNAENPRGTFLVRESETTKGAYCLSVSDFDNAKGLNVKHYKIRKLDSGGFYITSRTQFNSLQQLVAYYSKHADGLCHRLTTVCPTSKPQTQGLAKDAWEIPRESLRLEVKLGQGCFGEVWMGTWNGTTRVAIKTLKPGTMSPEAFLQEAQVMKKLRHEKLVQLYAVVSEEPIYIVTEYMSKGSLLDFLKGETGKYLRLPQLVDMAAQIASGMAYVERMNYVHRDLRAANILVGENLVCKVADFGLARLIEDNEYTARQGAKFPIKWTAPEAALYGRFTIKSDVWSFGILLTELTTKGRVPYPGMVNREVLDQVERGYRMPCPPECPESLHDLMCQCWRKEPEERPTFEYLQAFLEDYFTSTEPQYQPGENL
T11 sequence (P00519 whole entry E255K): as the sequence (P00519 whole entry) above, with E255K counted along it

inhibition at 0.001 µM (LCK) [%]	inhibition at 0.01 µM (LCK) [%]	inhibition at 0.01 µM (ACK) [%]	inhibition at 0.01 µM (FRK) [%]	inhibition at 0.01 µM (FMS) [%]	inhibition at 0.01 µM (DDR2) [%]	inhibition at 0.01 µM (ARG) [%]	inhibition at 0.01 µM (EPHA1) [%]	inhibition at 0.01 µM (FGR) [%]	inhibition at 0.001 µM (LYNa) [%]	inhibition at 0.01 µM (LYNa) [%]	inhibition at 0.001 µM (SRC) [%]	inhibition at 0.01 µM (SRC) [%]	inhibition at 0.001 µM (ABL(E255K)) [%]	inhibition at 0.01 µM (ABL(E255K)) [%]	inhibition at 0.001 µM (HCK) [%]	inhibition at 0.01 µM (HCK) [%]	inhibition at 0.001 µM (ABL) [%]	Compound	IC50 (Mino) [nM]	activity to inhibit kinases [1]	further results
> 50	> 50	> 50	> 50	> 50	> 50	> 50	> 50	> 50	> 50	> 50	> 50	> 50	> 50	> 50	> 50	> 50	> 50	[2H]c1cc(C)c(NC(=O)c2cnc(Nc3cc(N4CCCCC4)nc(C)n3)s2)c(Cl)c1 [Compound I, N-(2-chloro-4-deuterio-6-methyl-phenyl)-2-[[2-methyl-6-(1-piperidyl)pyrimidin-4-yl]amino]thiazole-5-carboxamide]	< 50	potent activity	inhibition at 0.001 µM (ACK; at 1 nM): > 50%; inhibition at 0.001 µM (FRK): > 50%; inhibition at 0.001 µM (FMS): > 50%; inhibition at 0.001 µM (DDR2; at 1 nM): > 50%; inhibition at 0.001 µM (ARG; at 1 nM): > 50%; inhibition at 0.001 µM (EPHA1): > 50%; inhibition at 0.001 µM (FGR): > 50%; inhibition at 0.01 µM (ABL): > 50%
> 50	> 50	> 50	> 50	> 50	> 50	> 50	> 50	> 50	> 50	> 50	> 50	> 50	> 50	> 50	> 50	> 50	> 50	[2H]c1cc(C)c(NC(=O)c2cnc(Nc3cc(N4CCC(O)CC4)nc(C)n3)s2)c(Cl)c1 [Compound II, N-(2-chloro-4-deuterio-6-methyl-phenyl)-2-[[6-(4-hydroxy-1-piperidyl)-2-methyl-pyrimidin-4-yl]amino]thiazole-5-carboxamide]	< 50	potent activity	inhibition at 0.001 µM (FRK): > 50%; inhibition at 0.001 µM (FMS): > 50%; inhibition at 0.001 µM (EPHA1): > 50%; inhibition at 0.001 µM (FGR): > 50%; inhibition at 0.01 µM (ABL): > 50%
> 50	> 50	> 50	> 50	> 50	> 50	> 50	> 50	> 50	> 50	> 50	> 50	> 50	> 50	> 50	> 50	> 50	> 50	[2H]c1cc(C)c(NC(=O)c2cnc(Nc3cc(N4CC[C@H](O)C4)nc(C)n3)s2)c(Cl)c1 [Compound IV, N-(2-chloro-4-deutero-6-methylphenyl)-2-[[2-methyl-6-((S)-3-hydroxypyrrolidin-1-yl)pyrimidin-4-yl]amino]thiazole-5-carboxamide]	< 50	potent activity	inhibition at 0.01 µM (ABL): > 50%
> 50	> 50	> 50	> 50	> 50	> 50	> 50	> 50	> 50	> 50	> 50	> 50	> 50	> 50	> 50	> 50	> 50	> 50	Cc1nc(Nc2ncc(C(=O)Nc3c(C)cccc3Cl)s2)cc(N2CCC(O)CC2)n1 [Compound IX, N-(2-chloro-6-methylphenyl)-2-[[2-methyl-6-(4-hydroxypiperidin-1-yl)pyrimidin-4-yl]amino]thiazole-5-carboxamide]	< 50	potent activity	inhibition at 0.01 µM (ABL): > 50%
> 50	> 50	> 50	> 50	> 50	> 50	> 50	> 50	> 50	> 50	> 50	> 50	> 50	> 50	> 50	> 50	> 50	> 50	[2H]c1cc(C)c(NC(=O)c2cnc(Nc3cc(N4CC[C@@H](O)C4)nc(C)n3)s2)c(Cl)c1 [Compound V, N-(2-chloro-4-deutero-6-methylphenyl)-2-[[2-methyl-6-((R)-3-hydroxypyrrolidin-1-yl)pyrimidin-4-yl]amino]thiazole-5-carboxamide]	< 50	potent activity	inhibition at 0.01 µM (ABL): > 50%
